Measurements from ChEMBL document CHEMBL1127384, “Design, synthesis, and conformational analysis of a novel macrocyclic HIV-protease inhibitor” (J Med Chem, 1994).
pKi: −log10 of the molar value.

Biological target: Human immunodeficiency virus type 1 protease (Human immunodeficiency virus 1, UniProt Q72874)
Assay: In vitro ability to inhibit HIV-protease.

Row | Compound | pKi
1 | CC(C)[C@@H]1NC(=O)CNC(=O)COc2ccc(cc2)C[C@@H](C(=O)C(F)(F)C(=O)NCc2ccccc2)NC1=O | 7.70
2 | CC(C)[C@H](NC(=O)OCc1ccccc1)C(=O)N[C@@H](Cc1ccc(OCc2ccccc2)cc1)C(=O)C(F)(F)C(=O)NCc1ccccc1 | 8.30
